{
  "source": "patent US10155742B2",
  "about": "“Halofuginol derivatives and their use in cosmetic and pharmaceutical compositions” (President and Fellows of Harvard College, priority 2012, dated 2018)",
  "key": {"P. falciparum (Dd2)": {"system": "P. falciparum (Dd2)", "experiment": "In vitro P. falciparum viability assay with excess proline", "assay_type": "cell-based, Plasmodium falciparum", "conditions": "Dd2 strain in red blood cells, relative to unmodified RPMI, FIG. 23", "protocol": "The activity of halofuginone and amodiaquine as inhibitors of P. falciparum growth was tested in erythrocytes in RPMI with or without excess amino acids as indicated, and IC50 values were normalized to IC50 values obtained under standard conditions using unmodified RPMI (numbers in bold). The absolute IC50 values for halofuginone and amodiaquine for RPMI are reported in parentheses. Fold amino acid indicated (e.g., “5×”) is relative to the concentration of the respective amino acid in RPMI. Fold concentration of D-Pro and L-Orn are relative to L-Pro.\nIn vitro potency against P. falciparum (DD2) was assessed using a modified version of the method of Plouffe and coworkers (Plouffe et al. Proc. Natl. Acad. Sci. USA 105:9059-64 (2008)). Parasites were cultured in the presence of drug in RPMI (Sigma) containing 4.16 mg/ml Albumax in a total volume of 50 μl at a 2.5% hematocrit and an initial parasitemia of 0.3% in black Greiner GNF clear-bottom plates. Cultures were incubated 72 hr at 37° C. under […], 4% CO2 and 3% O2. At the end of the incubation, SYBR green was added to a dilution of 1:10,000 and plates were stored overnight (or until ready to be read) at −80° C. Just before reading, plates were centrifuged at 700 rpm and fluorescence was read using 480 nm excitation and 530 nm emission frequencies. Compound concentrations that inhibit parasite replication reduce the fluorescence intensity of SYBR green bound to parasite DNA."}, "[1]": {"system": "primary human prostate stromal (hPrSc) cells, s100a4", "experiment": "S100A4 mRNA in primary human prostate stromal cells", "assay_type": "cell-based", "conditions": "with or without TGF 10 ng/ml, FIG. 28", "protocol": "Primary human prostate stromal (hPrSc) cells were left in low-serum media (0.2%) for 24 hours, and treated consecutively twice for 48 hours with or without tumor-growth factor beta (TGF; 10 ng/ml), halofuginone (HF) or halofuginol (HFol) at the concentrations indicated. Relative mRNA levels of the fibrosis/tissue invasion marker s100a4 was measured by quantitative real-time PCR using glyceraldehyde-3-phosphate dehydrogenase (GAPDH) as internal control."}, "[2]": {"system": "Th17 cell differentiation (primary murine CD4+ CD25- T cells)", "conditions": "from PCT/US08/09774; read-out: 50% inhibition of Th17 cell development; cited from earlier work"}, "[3]": {"experiment": "Anti-HF ELISA of intracellular HF levels", "assay_type": "in vitro ADME, mouse", "protocol": "MEFs were incubated with the indicated concentration of HF in the presence or absence of 2 mM proline for 2 hours, washed twice in cold PBS, and lysed in 1% NP40. Lysates were then tested for HF levels in comparison to a standard curve using known concentrations of HF with an anti-HF antibody based ELISA assay (see Examples). […] Similar results were obtained in three separate experiments.\nPolyclonal anti-HF antibody was raised by immunizing rabbits with KLH coupled to an HF derivative (MAZ1356, FIG. 1) containing a linker attached to the quinazolinone and terminated by a primary amino group. Antibody was affinity purified using MAZ1356 linked to NHS-agarose. For the ELISA assay (FIG. 17), MAZ1356 was coupled to 96-well Reacti-bind Plates (Pierce). After binding, plates were blocked with 10% goat serum in PBS/0.2% Tween-20 (PBST). […] Captured antibody was quantitated using TMB based colorimetric detection (Pierce), and a standard curve for HF concentration fitted from the colorimetric data. […] To determine HF concentration in cells, 8 μl of cleared lysate (or control buffer) was incubated with anti-HF antibody in MAZ1356 bound wells, and captured antibody detected and quantitated as described above. HF concentration was then determined by fitting colorimetry results with cell samples to a standard curve of HF concentration. […]"}, "[4]": {"system": "prolyl-tRNA charging in the RRL system", "experiment": "tRNA charging in RRL (14C Pro or 35S Met incorporation into tRNA)", "conditions": "FIG. 2D"}, "[5]": {"molecular_target": "T1, prolyl tRNA synthetase domain of human EPRS (ProRS) (Homo sapiens, UniProt P07814)", "T1 sequence (P07814 998-1512 limits assumed)": "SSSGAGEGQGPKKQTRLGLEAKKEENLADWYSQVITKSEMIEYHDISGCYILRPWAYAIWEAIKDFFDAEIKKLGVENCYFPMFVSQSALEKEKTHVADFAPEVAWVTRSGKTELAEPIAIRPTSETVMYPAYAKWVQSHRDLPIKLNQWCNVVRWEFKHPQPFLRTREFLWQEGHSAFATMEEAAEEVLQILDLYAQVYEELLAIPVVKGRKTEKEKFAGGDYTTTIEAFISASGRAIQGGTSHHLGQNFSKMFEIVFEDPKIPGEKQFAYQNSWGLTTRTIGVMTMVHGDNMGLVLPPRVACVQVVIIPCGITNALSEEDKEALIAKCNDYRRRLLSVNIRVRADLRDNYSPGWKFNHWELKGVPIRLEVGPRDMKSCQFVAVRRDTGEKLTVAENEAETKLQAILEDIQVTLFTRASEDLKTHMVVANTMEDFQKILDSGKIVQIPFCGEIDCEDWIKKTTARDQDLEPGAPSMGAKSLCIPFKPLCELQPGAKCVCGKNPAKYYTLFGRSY", "conditions": "3H Pro incorporation into tRNA"}, "[6]": {"system": "translation in rabbit reticulocyte lysate (RRL)", "experiment": "In vitro translation assay in rabbit reticulocyte lysate (RRL)"}, "[7]": {"conditions": "de Jonge et al. 2006; cited from earlier work"}, "[8]": {"conditions": "inhibitor 1 μM, anti-myc Western blot, FIG. 2C"}},
  "data": [
    {"smiles": "O=C(C[C@H]1NCCC[C@@H]1O)Cn1cnc2cc(Br)c(Cl)cc2c1=O", "note": "(racemic) [HF, 7-bromo-6-chloro-3-[3-(3-hydroxy-2-piperidinyl)-2-oxopropyl]-4(3H)-quinazolinone]", "values": [
      {"measurement": "fold increase of effective IC50 on addition of 5× proline", "setting": "P. falciparum (Dd2)", "value": "roughly 7 fold"},
      {"measurement": "expression of the activated fibroblast marker S100A4", "setting": "[1]", "value": "inhibit"},
      {"measurement": "IC50", "setting": "[2]", "value": "~3", "unit": "nM"},
      {"measurement": "effect of proline addition on intracellular accumulation of HF", "setting": "[3]; 2 mM proline, 2 hours, FIG. 17", "value": "not affected"},
      {"measurement": "absolute HF concentration inside cells", "setting": "[3]; MEFs incubated with 20 nM HF for 2 hours, packed cell volume estimated as 4 μl", "value": "~800", "unit": "nM"},
      {"measurement": "incorporation of 14C-Pro into tRNA", "setting": "[4]", "value": "inhibited"},
      {"measurement": "inhibition of ProRS activity", "setting": "[5]", "value": "inhibits"},
      {"measurement": "translation of Nopropep (proline-free polypeptide)", "setting": "[6]; [8]", "value": "no effect"},
      {"measurement": "translation of Propep (proline dipeptide containing polypeptide)", "setting": "[6]; [8]", "value": "prevent translation"},
      {"measurement": "inhibition of translation of luciferase RNA in RRL", "setting": "[6]; luminescence assay, FIG. 2A/2B", "value": "inhibited"},
      {"measurement": "toxicity in humans (nausea, vomiting, fatigue, possibly bleeding complications)", "setting": "[7]", "value": "some toxicity"}
    ]}
  ]
}
